Reference: ChEMBL document CHEMBL3286252, “Synthesis, biological evaluation and structure-activity relationship of new GABA uptake inhibitors, derivatives of 4-aminobutanamides” (Eur J Med Chem, 2014)
pIC50, pKi: −log10 of the molar value.

Experiments:
[1] = Retardation factor of the compound using 25%NH3/MeOH/DCM/PE at ratio of 45:225:600:90 as solvent system by thin layer chromatography; format: physicochemical
[2] = target: T1, Sodium- and chloride-dependent GABA transporter 1 (Mus musculus, UniProt P31648); experiment: Inhibition of mouse GAT1 expressed in HEK293 cells assessed as decrease in [3H]GABA uptake; format: cell-based
GABA transporter 2 = target: T2, GABA transporter 2 (Mus musculus, UniProt P31651); experiment: Inhibition of mouse GAT2 expressed in HEK293 cells assessed as decrease in [3H]GABA uptake; format: cell-based
T2 sequence (P31651 whole entry): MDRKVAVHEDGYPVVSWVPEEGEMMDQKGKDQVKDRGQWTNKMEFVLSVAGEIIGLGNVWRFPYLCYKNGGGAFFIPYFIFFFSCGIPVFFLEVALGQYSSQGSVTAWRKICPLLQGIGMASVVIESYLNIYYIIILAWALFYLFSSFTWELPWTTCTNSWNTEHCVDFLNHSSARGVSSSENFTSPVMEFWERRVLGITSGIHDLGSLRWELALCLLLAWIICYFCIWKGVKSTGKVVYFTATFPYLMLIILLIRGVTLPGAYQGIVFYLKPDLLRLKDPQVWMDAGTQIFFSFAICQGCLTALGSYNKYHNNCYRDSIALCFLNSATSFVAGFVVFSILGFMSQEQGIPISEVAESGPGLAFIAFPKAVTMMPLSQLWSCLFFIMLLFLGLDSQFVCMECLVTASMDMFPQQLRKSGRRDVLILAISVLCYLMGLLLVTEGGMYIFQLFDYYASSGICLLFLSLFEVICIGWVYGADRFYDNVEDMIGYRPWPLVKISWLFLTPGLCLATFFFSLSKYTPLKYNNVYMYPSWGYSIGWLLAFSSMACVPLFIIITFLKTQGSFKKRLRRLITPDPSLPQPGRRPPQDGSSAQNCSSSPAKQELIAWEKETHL

GABA transporter 3 = target: T3, GABA transporter 3 (Mus musculus, UniProt P31649); experiment: Inhibition of mouse GAT3 expressed in HEK293 cells assessed as decrease in [3H]GABA uptake; format: cell-based
T3 sequence (P31649 whole entry): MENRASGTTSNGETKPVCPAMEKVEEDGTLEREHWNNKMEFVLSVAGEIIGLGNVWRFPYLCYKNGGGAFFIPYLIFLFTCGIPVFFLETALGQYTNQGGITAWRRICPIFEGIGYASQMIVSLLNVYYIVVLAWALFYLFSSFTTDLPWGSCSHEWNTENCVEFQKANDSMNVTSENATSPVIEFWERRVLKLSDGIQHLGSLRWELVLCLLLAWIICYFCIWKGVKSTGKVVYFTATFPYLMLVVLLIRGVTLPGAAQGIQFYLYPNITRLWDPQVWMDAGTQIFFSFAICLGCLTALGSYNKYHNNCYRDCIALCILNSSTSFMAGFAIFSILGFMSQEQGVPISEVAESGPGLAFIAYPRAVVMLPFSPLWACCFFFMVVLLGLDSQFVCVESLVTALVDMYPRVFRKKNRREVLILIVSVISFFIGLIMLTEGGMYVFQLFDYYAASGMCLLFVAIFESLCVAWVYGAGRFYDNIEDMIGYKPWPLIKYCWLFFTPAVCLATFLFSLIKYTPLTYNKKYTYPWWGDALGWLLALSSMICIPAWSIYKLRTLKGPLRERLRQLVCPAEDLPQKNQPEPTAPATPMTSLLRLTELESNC

GABA transporter 4 = target: T4, GABA transporter 4 (Mus musculus, UniProt P31650); experiment: Inhibition of mouse GAT4 expressed in HEK293 cells assessed as decrease in [3H]GABA uptake; format: cell-based
T4 sequence (P31650 whole entry): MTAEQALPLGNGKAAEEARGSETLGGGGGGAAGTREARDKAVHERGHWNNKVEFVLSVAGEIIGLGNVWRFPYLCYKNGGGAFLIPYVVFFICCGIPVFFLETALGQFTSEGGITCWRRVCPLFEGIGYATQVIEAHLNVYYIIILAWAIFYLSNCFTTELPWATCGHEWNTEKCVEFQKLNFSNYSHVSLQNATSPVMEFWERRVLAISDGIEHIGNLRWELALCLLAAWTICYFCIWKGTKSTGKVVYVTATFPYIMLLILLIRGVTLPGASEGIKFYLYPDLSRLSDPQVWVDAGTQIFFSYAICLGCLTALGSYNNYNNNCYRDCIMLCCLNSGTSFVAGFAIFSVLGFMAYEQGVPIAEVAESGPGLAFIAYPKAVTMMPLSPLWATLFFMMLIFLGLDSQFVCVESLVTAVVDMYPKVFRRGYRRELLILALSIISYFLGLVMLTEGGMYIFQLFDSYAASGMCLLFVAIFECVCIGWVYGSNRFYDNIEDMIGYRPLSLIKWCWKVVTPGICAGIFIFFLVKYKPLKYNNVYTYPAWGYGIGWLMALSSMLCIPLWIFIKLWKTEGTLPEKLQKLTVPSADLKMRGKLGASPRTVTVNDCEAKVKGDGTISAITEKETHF

[3] = target: T1, Sodium- and chloride-dependent GABA transporter 1; experiment: Displacement of NO711 from mouse GAT1 expressed in HEK293 cells by LC-MS/MS analysis; format: cell-based
[4] = Retardation factor of the compound using hexane/ethanol/TEA at ratio of 7:2:1 as solvent system by thin layer chromatography; format: physicochemical
[5] = target: Sodium- and chloride-dependent GABA transporter 1 (Mus musculus) (UniProt P31648); experiment: Displacement of NO711 from mouse GAT1 expressed in HEK293 cells assessed as NO711 binding at 100 uM by LC-MS/MS analysis; format: cell-based

Row | SMILES | Rf [1] | pIC50 [2] | pIC50 (GABA transporter 2) | pIC50 (GABA transporter 3) | pIC50 (GABA transporter 4) | pKi [3] | Rf [4] | Activity [5]
1 | NCCC(C(=O)NCc1ccc(F)cc1)N1CCN(C(c2ccccc2)c2ccccc2)CC1 (stereo not drawn) | 0.12 | 4.63 | 4.51 | 4.47 | 4.43 | 4.18 | – | –
2 | CN(CCC=C(c1ccccc1)c1ccccc1)C(CCN)C(=O)NCc1ccccc1 (stereo not drawn) | 0.74 | 4.73 | 4.92 | 4.62 | 4.80 | 4.90 | – | –
3 | NCCC(C(=O)NCc1ccc(Cl)cc1)N1CCC(=C(c2ccccc2)c2ccccc2)CC1 (stereo not drawn) | 0.8 | 4.96 | 4.98 | 4.89 | 4.92 | 4.62 | – | –
4 | NCCC(C(=O)NCc1ccc(F)cc1)N1CCC(=C(c2ccccc2)c2ccccc2)CC1 (stereo not drawn) | 0.77 | 4.96 | 4.99 | 4.91 | 4.87 | 4.60 | – | –
5 | CN(CCC=C(c1ccccc1)c1ccccc1)C(CCN)C(=O)NCc1ccc(F)cc1 (stereo not drawn) | 0.79 | 4.86 | 4.89 | 4.96 | 4.90 | 4.80 | – | –
6 | CN(CCCC(c1ccccc1)c1ccccc1)C(CCN)C(=O)NCc1ccccc1Cl (stereo not drawn) | – | 4.90 | 5.11 | 4.72 | 4.94 | 4.67 | 0.15 | –
7 | NCCC(NCCC=C(c1ccccc1)c1ccccc1)C(=O)NCc1ccc(F)cc1 (stereo not drawn) | – | 4.56 | 4.92 | 4.61 | 4.50 | 4.64 | 0.15 | –
8 | Cc1ccc(CNC(=O)C(CCN)N2CCC(=C(c3ccccc3)c3ccccc3)CC2)cc1 (stereo not drawn) | 0.73 | 4.95 | 5.23 | 4.79 | 4.94 | 4.53 | – | –
9 | CN(CCCC(c1ccccc1)c1ccccc1)C(CCN)C(=O)NCc1ccccc1 (stereo not drawn) | – | 4.65 | 5.02 | 4.53 | 4.59 | 4.51 | 0.12 | –
10 | NCCC(C(=O)NCc1ccc(F)cc1)N1CCC(C(c2ccccc2)c2ccccc2)CC1 (stereo not drawn) | 0.9 | 4.80 | 5.03 | 4.67 | 5.07 | 4.47 | – | –
11 | Cc1ccc(CNC(=O)C(CCN)NCCC=C(c2ccccc2)c2ccccc2)cc1 (stereo not drawn) | – | 4.71 | 5.05 | 4.53 | 4.82 | 4.96 | 0.16 | –
12 | NCCC(NCCC=C(c1ccccc1)c1ccccc1)C(=O)NCc1ccccc1 (stereo not drawn) | – | 4.51 | 5.10 | 4.48 | 4.59 | 4.76 | 0.16 | –
13 | NCCC(C(=O)NCc1ccc(Cl)cc1)N1CCC(C(c2ccccc2)c2ccccc2)CC1 (stereo not drawn) | 0.77 | 4.95 | 5.01 | 5.02 | 4.99 | 4.52 | – | –
14 | NCCC(NCCC=C(c1ccccc1)c1ccccc1)C(=O)NCc1ccc(Cl)cc1 (stereo not drawn) | – | 4.78 | 5.02 | 4.75 | 4.93 | 4.79 | 0.14 | –
15 | Cc1ccc(CNC(=O)C(CCN)N(C)CCCC(c2ccccc2)c2ccccc2)cc1 (stereo not drawn) | – | 4.91 | 4.85 | 4.64 | 5.08 | 4.81 | 0.17 | –
16 | Cc1ccc(CNC(=O)C(CCN)N2CCC(C(c3ccccc3)c3ccccc3)CC2)cc1 (stereo not drawn) | 0.92 | 4.88 | 5.10 | 4.84 | 5.13 | 4.78 | – | –
17 | NCCC(C(=O)NCc1ccccc1)N1CCC(=C(c2ccccc2)c2ccccc2)CC1 (stereo not drawn) | 0.74 | 4.96 | 4.81 | 4.86 | 4.92 | 4.78 | – | –
18 | NCCC(C(=O)NCc1ccccc1Cl)N1CCC(=C(c2ccccc2)c2ccccc2)CC1 (stereo not drawn) | 0.78 | 4.87 | 4.99 | 4.81 | 4.96 | 4.98 | – | –
19 | NCCC(C(=O)NCc1ccccc1)N1CCC(C(c2ccccc2)c2ccccc2)CC1 (stereo not drawn) | 0.92 | 4.71 | 4.92 | 4.69 | 4.70 | 4.49 | – | –
20 | Cc1ccc(CNC(=O)C(CCN)N(C)CCC=C(c2ccccc2)c2ccccc2)cc1 (stereo not drawn) | 0.84 | 5.07 | 5.02 | 4.92 | 5.01 | 5.04 | – | –
21 | CN(CCC=C(c1ccccc1)c1ccccc1)C(CCN)C(=O)NCc1ccccc1Cl (stereo not drawn) | 0.76 | 4.89 | 5.19 | 5.00 | 5.04 | 4.96 | – | –
22 | CN(CCC=C(c1ccccc1)c1ccccc1)C(CCN)C(=O)NCc1ccc(Cl)cc1 (stereo not drawn) | 0.73 | 4.89 | 5.01 | 4.95 | 4.90 | 4.95 | – | –
23 | CN(CCCC(c1ccccc1)c1ccccc1)C(CCN)C(=O)NCc1ccc(Cl)cc1 (stereo not drawn) | – | 4.76 | 4.76 | 4.67 | 4.84 | 4.75 | 0.1 | –
24 | NCCC(NCCC=C(c1ccccc1)c1ccccc1)C(=O)NCc1ccccc1Cl (stereo not drawn) | – | 4.80 | 5.16 | 4.62 | 4.99 | – | 0.15 | 53%
25 | NCCC(C(=O)NCc1ccccc1)N1CCN(C(c2ccccc2)c2ccccc2)CC1 (stereo not drawn) | 0.15 | 4.35 | 4.42 | 4.57 | 4.23 | – | – | 83%
26 | CN(CCCC(c1ccccc1)c1ccccc1)C(CCN)C(=O)NCc1ccc(F)cc1 (stereo not drawn) | – | 4.78 | 4.94 | 4.57 | 4.87 | 4.67 | 0.22 | –
27 | NCCC(C(=O)NCc1ccccc1Cl)N1CCC(C(c2ccccc2)c2ccccc2)CC1 (stereo not drawn) | 0.79 | 4.86 | 5.23 | 4.96 | 4.99 | 4.59 | – | –
28 | Cc1ccc(CNC(=O)C(CCN)N2CCN(C(c3ccccc3)c3ccccc3)CC2)cc1 (stereo not drawn) | 0.18 | 4.55 | 4.52 | 4.74 | 4.63 | 4.20 | – | –
